Results taken from patent US9839708B2, “Method for treating used absorbent article” (Unicharm Corporation, priority 2012, dated 2017).

Assays:
[1] = Evaluation of pH of recycled pulp; format: physicochemical; settings: 1.00 g dried pulp in 10 ml physiological saline; criterion pH 3.1-9.8
Protocol: (§1) Eight commercially available disposable diapers (Moony M Size, Unicharm Corp.) that had adsorbed 200 ml of physiological saline were placed in a twin tub compact washing machine (Harebare AST-01, Alumis Co., Ltd.). 80 g of CaO (Wako Pure Chemical Industries, Ltd.) were placed in the washing tub followed by the addition of 6.5 L of acidic electrolyzed water (pH 3, generated with the ESS-ZERO Electrolyzed Water Sanitation System manufactured by Tech Corp.). After washing for 15 minutes, the liquid inside the washing tub was discharged followed by newly adding 6.5 L of acidic electrolyzed water (pH 3, formed with the ESS-ZERO Electrolyzed Water Sanitation System manufactured by Tech Corp.). After washing for 15 minutes, only the pulp that floated in the liquid in the washing tub was skimmed off followed by placing in a mesh pouch (measuring 25 cm on a side, N-No. 250HD, NBC Meshtec Inc.) and dehydrating for 5 minutes in the spin tub (dehydrator). The recycled pulp was rinsed for 15 minutes with running water (tap water) while still in the mesh pouch followed by again dehydrating for 5 minutes in the spin tub (dehydrator). The pulp was then dried for 24 hours with a hot air dryer at 105° C. Recycled pulp was obtained according to the aforementioned method.
1.00 g of the dried pulp was weighed out into a beaker followed by the addition of 10 ml of physiological saline. After gently stirring with a glass rod, the pulp was allowed to stand undisturbed for 10 minutes followed by measurement of the liquid inside the beaker with a pH meter (AS-212, As One Corp.).
(§2) Eight commercially available disposable diapers (Moony M Size, Unicharm Corp.) that had adsorbed 200 ml of physiological saline were placed in a twin tub compact washing machine (Harebare AST-01, Alumis Co., Ltd.). 80 g of CaO (Wako Pure Chemical Industries, Ltd.) were placed in the washing tub followed by the addition of 6.5 L of alkaline electrolyzed water (pH 12, generated with the ESS-ZERO Electrolyzed Water Sanitation System manufactured by Tech Corp.). […]

[2] = Residual chlorine concentration of recycled pulp (JIS K 0102 33.2); format: physicochemical; settings: 5.00 g eluted into 100 ml, criterion Less than 1 ppm
Protocol: as §1
5.00 g of pulp dried in the same manner as described above were eluted into 100 ml of physiological saline followed by measurement of the chlorine concentration thereof (JIS K 0102 33.2).
as §2

[3] = test system: Staphylococcus aureus; test: Evaluation of bactericidal function (MIC / minimum bactericidal concentration); format: cell-based; set-up: key: −: exhibited effects of bactericidal action; +: with the exception of the results of Comparative Examples 1 and 2; settings: at the concentration used in the example; absence of growth 24 hours later
Protocol: (§3) Minimum inhibitory concentration (MIC) of the acidic electrolyzed water was measured based on the standard test method of the Japanese Society of Chemotherapy followed by confirming the absence of growth 24 hours later to evaluate the minimum bactericidal concentration and determine if bactericidal effects are present at the concentration used in the example. Minimum inhibitory concentrations (MIC) of the alkaline electrolyzed water and acidic electrolyzed water were respectively measured based on the standard test method of the Japanese Society of Chemotherapy followed by confirming the absence of growth 24 hours later to evaluate the minimum bactericidal concentration and determine if bactericidal effects are present at the concentration used in Example 2-2. Minimum inhibitory concentrations (MIC) of the acidic electrolyzed water and alkaline electrolyzed water were respectively measured based on the standard test method of the Japanese Society of Chemotherapy followed by confirming the absence of growth 24 hours later to evaluate the minimum bactericidal concentration and determine if bactericidal effects are present at the concentration used in Example 3-2. Minimum inhibitory concentration (MIC) of the tap water was measured based on the standard test method of the Japanese Society of Chemotherapy followed by confirming the absence of growth 24 hours later to evaluate the minimum bactericidal concentration and determine if bactericidal effects are present at the concentration used in the example. Minimum inhibitory concentrations (MIC) of the alkaline electrolyzed water was measured based on the standard test method of the Japanese Society of Chemotherapy followed by confirming the absence of growth 24 hours later to evaluate the minimum bactericidal concentration and determine if bactericidal effects are present at the concentration used in Comparative Example 2-2. Minimum inhibitory concentration (MIC) of the 250 ppm sodium hypochlorite was measured based on the standard test method of the Japanese Society of Chemotherapy followed by confirming the absence of growth 24 hours later to evaluate the minimum bactericidal concentration and determine if bactericidal effects are present at the concentration used in Comparative Example 3-2. Minimum inhibitory concentration (MIC) of the 500 ppm sodium hypochlorite was measured based on the standard test method of the Japanese Society of Chemotherapy followed by confirming the absence of growth 24 hours later to evaluate the minimum bactericidal concentration and determine if bactericidal effects are present at the concentration used in Comparative Example 4-2. Minimum inhibitory concentration (MIC) of the 1000 ppm sodium hypochlorite was measured based on the standard test method of the Japanese Society of Chemotherapy followed by confirming the absence of growth 24 hours later to evaluate the minimum bactericidal concentration and determine if bactericidal effects are present at the concentration used in Comparative Example 4-2.

[4] = test system: Escherichia coli; test: as above; format: cell-based; set-up: key: −: exhibited effects of bactericidal action; +: with the exception of the results of Comparative Examples 1 and 2; settings: at the concentration used in the example; absence of growth 24 hours later
Protocol: as §3

pH of Recycled Pulp [1]	Residual Chlorine ppm [2]	Compound	Bactericidal Effect S. aureus [3]	Bactericidal Effect E. coli [4]
12.3	1 ppm	OCl [compound 3, sodium hypochlorite]	−	−
12.2	1 ppm	[Na+].[O-]Cl [compound 4, sodium hypochlorite]	−	−
12.0	1 ppm	OCl [compound 5, sodium hypochlorite]	−	−
